Assay: in vitro
Conditions: human, hela cells, % viability

Row | Compound | viability at 28.5 h, 10 µM [%]
1 | CCN1CC2(CCC1=O)CCN(Cc1nncn1C(C)C)CC2 [CBK307460] | 107
2 | NCCn1cc(C(=O)N2Cc3cnn(Cc4ccc(F)cc4)c3C2)nn1 [CBK307461] | 107
3 | CCNC(=O)C1CCN(C(=O)c2coc(COc3cccc(F)c3)n2)C1 (stereo not drawn) [CBK307466] | 86.3
4 | Cc1cc(C(F)(F)F)nc(CCNC(=O)N(Cc2ccsc2)C2CC2)n1 [CBK307468] | 107
5 | Cc1nc(C(=O)NC2CC(=O)N(CCc3ccc(F)cc3)C2)cs1 (stereo not drawn) [CBK307473] | 100
6 | Cc1nc(C(=O)N2CCn3nc(C(O)c4ccccc4)cc3C2)c(C)s1 (stereo not drawn) [CBK307474] | 92.5
7 | CN1CCN(C)C(CNC(=O)c2ccc(-c3ccccc3CO)cc2)C1 (stereo not drawn) [CBK307475] | 84.2
8 | COc1cccc(CN2CCCC(NC(=O)c3cnn(C(C)C)c3)C2)c1 (stereo not drawn) [CBK307477] | 91.3
9 | CN(Cc1nccs1)C(=O)c1cccc(OCC(=O)N2CCCCC2)c1 [CBK307478] | 108
10 | Cn1c(N2CC[C@H](O)C2)nc2cc(C(=O)NCCn3cccc3)ccc21 [CBK307480] | 83.6
11 | CSc1nnc(CC2CCN(C(=O)c3cc(C)on3)CC2)n1C [CBK307481] | 108
12 | Cc1cc(=O)n(CC(=O)N2CCC3(CCCN(C(C)C)C3=O)C2)nc1C (stereo not drawn) [CBK307482] | 90
13 | CCC(Cn1ccnc1)NS(=O)(=O)c1cc(-n2cccn2)ccc1OC (stereo not drawn) [CBK307483] | 87.8
14 | CCCCn1nccc1NC(=O)NC(C)c1n[nH]c(C)n1 (stereo not drawn) [CBK307486] | 99.4
15 | CCc1c(-c2cccc(C(=O)N3CCS(=O)(=O)CC3)c2)cnn1C [CBK307487] | 75.3
16 | c1cnn(CC2CCCN2c2ncnc3sc4c(c23)CCNC4)c1 (stereo not drawn) [CBK307490] | 85.9
17 | OC1(CN2CCCC2)CCN(Cc2sccc2Cl)CC1 [CBK307491] | 105
18 | COCCc1noc(C(C)NC(=O)Cc2cccc(O)c2)n1 (stereo not drawn) [CBK307493] | 99.5

Row | Compound | viability at 28.5 h, 10 µM [%]
19 | CCCCC(c1cccnc1)N(C)C(=O)c1cccn(C)c1=O (stereo not drawn) [CBK307496] | 114
20 | Cc1nn2cc(CNC(=O)C3Cc4ccccc4O3)nc2s1 (stereo not drawn) [CBK307498] | 73.4
21 | CCc1c(C(=O)N(C)Cc2cnn(C(C)C)c2)[nH]c2ccccc12 [CBK307501] | 92.9
22 | CCCS(=O)(=O)N1CCCC(Cc2ccccc2C)(C(=O)OCC)C1 (stereo not drawn) [CBK307502] | 84.9
23 | CCC(NC(=O)c1cc(CC(C)C)nn1CC)c1cn2cccnc2n1 (stereo not drawn) [CBK307505] | 101
24 | OCCn1nc(C2CCCC2)nc1CCc1c[nH]c2ccccc12 [CBK307509] | 85.1
25 | CCOCc1nc2c(c(NCc3cc(C)on3)n1)CCN(C(C)=O)CC2 [CBK307512] | 87.4
26 | Cc1csc2c(N3CCC(NCCc4ccnn4C)CC3)ncnc12 [CBK307515] | 89.8
27 | CCOC(=O)C1(Cc2ccc(F)cc2F)CCCN(C(C)=O)C1 (stereo not drawn) [CBK307516] | 106
28 | CN1CCN(CC2(CNC(=O)c3ccc(C(=O)O)cc3)CC2)CC1 [CBK307517] | 102
29 | Cc1ccn2cc(CNC(=O)CN3CCOc4ccccc4C3)nc2c1 [CBK307518] | 84.6
30 | COCCc1nc(Cc2ccc(OC)cc2)nn1CC1COCCO1 (stereo not drawn) [CBK307521] | 89.7
31 | CCC(O)Cn1nc(CCSC)nc1-c1ccc2[nH]ccc2c1 (stereo not drawn) [CBK307526] | 104
32 | COc1ccc(C(NC(=O)Cn2cccnc2=O)C2CC(O)C2)cn1 (stereo not drawn) [CBK307527] | 83.4
33 | CCc1ccc(CN2CCC(Oc3ccccc3F)(C(=O)O)CC2)nc1 [CBK307528] | 93.1
34 | Cc1nnc(SCCCNC(=O)C2CC(=O)N(Cc3ccccn3)C2)s1 (stereo not drawn) [CBK307529] | 101
35 | CCOc1ccc(-c2ccnc(NCC(C)(C)CO)n2)cc1C(=O)O [CBK307530] | 88.6
36 | CCCS(=O)(=O)NC1CC(C)(C)Cc2c1cnn2-c1ccc(C)cc1 (stereo not drawn) [CBK307531] | 86.5

Reference: paper PMC12040169 (PLOS Biology, 2025)
